Results reported in publication PMC11995724, “Antibiotic target discovery by integrated phenotypic and activity-based profiling of electrophilic fragments” (Cell chemical biology, 2025).

Assay: in vitro
Conditions: human, hek293t cells

Compared with C=CC(=O)Nc1ccccc1-n1nccn1 [3-H10, N-[2-(2H-1,2,3-triazol-2-yl)phenyl]prop-2-enamide], C=CC(=O)Nc1cnn(-c2ccccc2)c1C(F)F [3-I03, N-[5-(difluoromethyl)-1-phenyl-1H-pyrazol-4-yl]prop-2-enamide] is lower in viability at 48 h, 25 µM: 73.2% for the first, 41.7% for the second.

First: C=CC(=O)NCc1ncnn1-c1ccccc1 [3-H11, N-[(1-phenyl-1H-1,2,4-triazol-5-yl)methyl]prop-2-enamide]
Second: C=CC(=O)NCc1ccc(-n2ccc(C)n2)nc1 [3-H16, N-{[6-(3-methyl-1H-pyrazol-1-yl)pyridin-3-yl]methyl}prop-2-enamide]
The viability at 48 h, 25 µM of the first is lower: 63.1% for the first, 99.7% for the second.

Going from C=CC(=O)N1CCC(C(=O)NC2(Cc3ccccc3)CCCC2)CC1 [3-H12, N-(1-benzylcyclopentyl)-1-(prop-2-enoyl)piperidine-4-carboxamide] to C=CC(=O)N1CCC(C(=O)NCc2nccn2C)(c2ccccc2)CC1 [3-I10, N-[(1-methyl-1H-imidazol-2-yl)methyl]-4-phenyl-1-(prop-2-enoyl)piperidine-4-carboxamide], the viability at 48 h, 25 µM rises from 83.4% to 92.9%.

First: C=CC(=O)NC1(c2nc(C3CC3)cc(=O)[nH]2)CCCCC1 [3-H13, N-[1-(4-cyclopropyl-6-oxo-1,6-dihydropyrimidin-2-yl)cyclohexyl]prop-2-enamide]
Second: C=CC(=O)NCc1ccnn1C1CCCC1 [3-H21, N-[(1-cyclopentyl-1H-pyrazol-5-yl)methyl]prop-2-enamide]
The viability at 48 h, 25 µM of the first is lower: 68.3% for the first, 74.5% for the second.

Going from C=CC(=O)Nc1ccc2occc2c1 [3-H14, N-(1-benzofuran-5-yl)prop-2-enamide] to C=CC(=O)N(C)Cc1cc2ccccc2o1 [3-I09, N-[(1-benzofuran-2-yl)methyl]-N-methylprop-2-enamide], the viability at 48 h, 25 µM falls from 99.9% to 47.1%.

Going from C=CC(=O)NCc1noc(-c2cccs2)n1 [3-H15, N-{[5-(thiophen-2-yl)-1,2,4-oxadiazol-3-yl]methyl}prop-2-enamide] to C=CC(=O)NCc1ccccc1S(=O)(=O)N1CCOCC1 [3-H22, N-{[2-(morpholine-4-sulfonyl)phenyl]methyl}prop-2-enamide], the viability at 48 h, 25 µM falls from 93.9% to 89.1%.

Going from C=CC(=O)Nc1ccccc1C(=O)N(C)C(C)C [3-H17, N-methyl-2-(prop-2-enamido)-N-(propan-2-yl)benzamide] to C=CC(=O)NC(c1ccc(F)cc1)C1CC1 (stereo not drawn) [3-H20, N-[cyclopropyl(4-fluorophenyl)methyl]prop-2-enamide], the viability at 48 h, 25 µM rises from 66.9% to 89.2%.

Compared with C=CC(=O)N1CCS(=O)(=O)N2CCCC12 (stereo not drawn) [3-H18, 1-(prop-2-enoyl)-hexahydro-1H-4lambda6-pyrrolo[1,2-b][1,2,4]thiadiazine-4,4-dione], C=CC(=O)N(CC)CC(=O)N1CCCC(N2CCCS2(=O)=O)C1 (stereo not drawn) [3-I08, N-{2-[3-(1,1-dioxo-1lambda6,2-thiazolidin-2-yl)piperidin-1-yl]-2-oxoethyl}-N-ethylprop-2-enamide] is lower in viability at 48 h, 25 µM: 93.3% for the first, 91.2% for the second.

Compared with C=CC(=O)NCCCN1CCCS1(=O)=O [3-H19, N-[3-(1,1-dioxo-1lambda6,2-thiazolidin-2-yl)propyl]prop-2-enamide], C=CC(=O)NCc1ccc(C(=O)N2CCNC(=O)CC2)cc1 [3-I04, N-{[4-(5-oxo-1,4-diazepane-1-carbonyl)phenyl]methyl}prop-2-enamide] is higher in viability at 48 h, 25 µM: 88.4% for the first, 93.2% for the second.

Going from C=CC(=O)N(CC)Cc1cccc2c1OCO2 [3-I05, N-[(1,3-dioxaindan-4-yl)methyl]-N-ethylprop-2-enamide] to C=CC(=O)NCc1ccc(C(=O)N2CCCC23CCOC3=O)cc1 (stereo not drawn) [3-I06, N-[(4-{6-oxo-7-oxa-1-azaspiro[4.4]nonane-1-carbonyl}phenyl)methyl]prop-2-enamide], the viability at 48 h, 25 µM rises from 47.8% to 88.5%.

C=CC(=O)N1CCC(c2noc3cc(F)ccc23)CC1 [3-I07, 1-[4-(6-fluoro-1,2-benzoxazol-3-yl)piperidin-1-yl]prop-2-en-1-one] gave a viability at 48 h, 25 µM of 48.2%.
